Test results published in BindingDB's records for doi:10.1021/jm00057a008 (American Cyanamid, 1993).

target: Platelet-activating factor receptor (Oryctolagus cuniculus); test: Inhibition of PAF-induced platelet aggregation in rabbit platelet rich plasma

| IC50 | Structure (SMILES) |
| --- | --- |
| > 10 µM | CCCCCCCCCCCCCCOc1ccc(C(=O)NCCc2cccc[n+]2C)cc1 [1-Methyl-2-[2-(4-tetradecyloxy-benzoylamino)-ethyl]-pyridinium; iodide] |
| > 10 µM | CCCCCCCCCCCCCCOc1ccc(C(=O)NCc2cccc[n+]2C)cc1 [1-Methyl-2-[(4-tetradecyloxy-benzoylamino)-methyl]-pyridinium; iodide] |
| 15 µM | CCCCCCCCCCCCCCOc1ccc(CC(=O)NCCc2cccc[n+]2C)cc1 [1-Methyl-2-{2-[2-(4-tetradecyloxy-phenyl)-acetylamino]-ethyl}-pyridinium; iodide] |
| > 10 µM | CCCCCCCCCCCCCCOc1ccc(CC(=O)NCc2cccc[n+]2C)cc1 [1-Methyl-2-{[2-(4-tetradecyloxy-phenyl)-acetylamino]-methyl}-pyridinium; iodide] |
| 60 µM | CCCCCCCCCCCCCCOc1ccc(CNC(=O)c2cc[n+](C)cc2)cc1 [1-Methyl-4-(4-tetradecyloxy-benzylcarbamoyl)-pyridinium; iodide] |
| 43 µM | CCCCCCCCCCCCCCOc1ccccc1CN(Cc1cccc[n+]1C)C(C)=O [2-{[Acetyl-(2-tetradecyloxy-benzyl)-amino]-methyl}-1-methyl-pyridinium; iodide] |
| 3.7 µM | CCCCCCCOc1ccc(C(=O)N(Cc2cccc[n+]2C)C(C)=O)cc1OCCCCCCC [2-{[Acetyl-(3,4-bis-heptyloxy-benzoyl)-amino]-methyl}-1-methyl-pyridinium; iodide] |
| > 10 µM | CCCCCCCCCCCCCCOc1ccc(C(=O)N(Cc2cccc[n+]2C)C(C)=O)cc1OCCCCCCCCCCCCCC [2-{[Acetyl-(3,4-bis-tetradecyloxy-benzoyl)-amino]-methyl}-1-methyl-pyridinium; iodide] |
| 0.16 µM | CCCCCCCCCCCCCCOc1ccc(C(=O)N(Cc2cccc[n+]2CC)C(C)=O)cc1OC [2-{[Acetyl-(3-methoxy-4-tetradecyloxy-benzoyl)-amino]-methyl}-1-ethyl-pyridinium; iodide] |
| 0.064 µM | CCCCCCCCCCCCCCOc1ccc(C(=O)N(Cc2cccc[n+]2C)C(C)=O)cc1OC [2-{[Acetyl-(3-methoxy-4-tetradecyloxy-benzoyl)-amino]-methyl}-1-methyl-pyridinium; iodide] |
| 10 µM | CCCCCCCCCCOc1ccc(C(=O)N(Cc2cccc[n+]2C)C(C)=O)cc1C(C)(C)C [2-{[Acetyl-(3-tert-butyl-4-decyloxy-benzoyl)-amino]-methyl}-1-methyl-pyridinium; iodide] |
| 0.022 µM | CCCCCCCCCCCCCCOc1ccc(C(=O)N(Cc2cccc[n+]2C)C(C)=O)cc1C(C)(C)C [2-{[Acetyl-(3-tert-butyl-4-tetradecyloxy-benzoyl)-amino]-methyl}-1-methyl-pyridinium; iodide] |
| 160 µM | CCCCCCCCCCCCCCOc1cc(C(=O)N(Cc2cccc[n+]2C)C(C)=O)ccc1OC [2-{[Acetyl-(4-methoxy-3-tetradecyloxy-benzoyl)-amino]-methyl}-1-methyl-pyridinium; iodide] |
| 330 µM | CCCCCCCCCCCCCCOc1ccc(C(=O)N(Cc2cccc[n+]2Cc2ccccc2)C(C)=O)cc1 [2-{[Acetyl-(4-tetradecyloxy-benzoyl)-amino]-methyl}-1-benzyl-pyridinium; bromide] |
| 0.95 µM | CCCCCCCCCCCCCCOc1ccc(C(=O)N(Cc2cccc[n+]2C)C(C)=O)cc1 [2-{[Acetyl-(4-tetradecyloxy-benzoyl)-amino]-methyl}-1-methyl-pyridinium; iodide] |
| 8.3 µM | CCCCCCCCCCCCCCOc1ccc(CN(Cc2cccc[n+]2CC)C(C)=O)cc1 [2-{[Acetyl-(4-tetradecyloxy-benzyl)-amino]-methyl}-1-ethyl-pyridinium; iodide] |
| > 10 µM | CCCCCCCCCCCCCCOc1ccc(COC(=O)N(Cc2cccc[n+]2C)C(C)=O)cc1 [2-{[Acetyl-(4-tetradecyloxy-benzyloxycarbonyl)-amino]-methyl}-1-methyl-pyridinium; iodide] |
| > 10 µM | CCCCCCCCCCCCCCOc1ccc(C(=O)NC(=O)c2ccc[n+](CCC)c2)cc1OC [3-(3-Methoxy-4-tetradecyloxy-benzoylaminocarbonyl)-1-propyl-pyridinium; iodide] |
| 20 µM | CCCCCCCCCCCCCCOc1ccc(C(=O)N(Cc2ccc[n+](C)c2)C(C)=O)cc1C(C)(C)C [3-{[Acetyl-(3-tert-butyl-4-tetradecyloxy-benzoyl)-amino]-methyl}-1-methyl-pyridinium; iodide] |
| 6.8 µM | CCCCCCCCCCCCCCOc1ccc(C(=O)N(Cc2ccc[n+](C)c2)C(C)=O)cc1 [3-{[Acetyl-(4-tetradecyloxy-benzoyl)-amino]-methyl}-1-methyl-pyridinium; iodide] |
| > 10 µM | CCCCCCCCCCCCCCOc1ccc(CN(Cc2ccc[n+](C)c2)C(C)=O)cc1 [3-{[Acetyl-(4-tetradecyloxy-benzyl)-amino]-methyl}-1-methyl-pyridinium; iodide] |
| 1 µM | CCCCCCCCCCCCCCOc1ccc(CN(Cc2cc[n+](C)cc2)C(C)=O)cc1 [4-{[Acetyl-(4-tetradecyloxy-benzyl)-amino]-methyl}-1-methyl-pyridinium; iodide] |
| > 10 µM | CCCCCCCCCCCCCCOc1ccc(C(=O)N(Cc2cccc[n+]2[O-])C(C)=O)cc1C(C)(C)C [N-Acetyl-3-tert-butyl-N-(1-oxy-pyridin-2-ylmethyl)-4-tetradecyloxy-benzamide] |
| > 10 µM | CCCCCCCCCCCCCCOc1ccc(CNC(=O)c2cccc[n+]2CC)cc1 [Trifluoro-methanesulfonate1-ethyl-2-(4-tetradecyloxy-benzylcarbamoyl)-pyridinium;] |
| > 10 µM | CCCCCCCCCCCCCCOc1ccc(COC(=O)NCc2cccc[n+]2CC)cc1 [Trifluoro-methanesulfonate1-ethyl-2-[(4-tetradecyloxy-benzyloxycarbonylamino)-methyl]-pyridinium;] |
| 0.1 µM | CCCCCCCCCCCCCCOc1ccc(C(=O)N(Cc2cccc[n+]2CCC)C(C)=O)cc1OC [Trifluoro-methanesulfonate2-{[acetyl-(3-methoxy-4-tetradecyloxy-benzoyl)-amino]-methyl}-1-propyl-pyridinium;] |

| Structure (SMILES) | IC50 |
| --- | --- |
| CCCCCCCCCCCCCCCCCCNC(=O)Oc1ccc(C(=O)N(Cc2cccc[n+]2C)C(C)=O)cc1C(C)(C)C [2-{[Acetyl-(3-tert-butyl-4-octadecylcarbamoyloxy-benzoyl)-amino]-methyl}-1-methyl-pyridinium; iodide] | > 10 µM |
